{"source": "patent US20250290151A1", "about": "“Differentially-Methylated Regions of the Genome Useful as Markers of Embryo-Adult Transitions” (priority 2019, published 2025)", "key": {"[1]": {"test_system": "adult bone marrow MSCs", "assay": "H2O2-mediated apoptosis (survival) before and after knock-down of COX7A1", "assay_type": "cell-based, human", "settings": "300 uM H2O2", "method": "(§1) Similarly, normal pre-EFT vascular progenitors were more sensitive to apoptosis at 37 uM of camptothecin (39% apoptosis) compared to adult aortic endothelial counterparts (25.5% apoptosis). In addition, H2O2-mediated apoptosis was measured in post-EFT cells (adult bone marrow MSCs) before and after knock-down of COX7A1 expression."}, "[2]": {"test_system": "adult aortic endothelial counterparts", "assay": "TUNEL apoptosis assay after camptothecin, adult aortic endothelial cells", "assay_type": "cell-based, human", "settings": "37 uM camptothecin, 24 h", "method": "(§2) The pre-EFT (DC) fibrosarcoma cell line HT1080 was infected with lentivirus expressing COX7A1 together with a control line expressing green fluorescent protein (GFP). The resulting cells were treated with 0, 0.37, and 37 uM camptothecin to generate a DNA damage response and apoptosis. TUNEL (TdT-mediated dUTP-X nick end labeling) adds label to termini of ssDNA and dsDNA. Readout used was fluorescent nuclei read by microscopy. In brief, cell lines were cultured in 96-well plates at 5000 cells/well and grown over night. The following day, the growth medium was removed and replaced with growth medium containing compounds and controls. After 24 h, the cells are fixed for 20 minutes using 4% PFA. Plates are stored at 4 deg C. in PBS until processing. Fixed cells were permeabilized with 0.1% Triton X-100 and 0.1% sodium citrate for 2 minutes on ice. […] 9 images per well were collected and analyzed for total cell number and number of cells stained for apoptosis.\nas §1"}, "[3]": {"test_system": "normal pre-EFT vascular progenitors", "assay": "TUNEL apoptosis assay after camptothecin, pre-EFT vascular progenitors", "assay_type": "cell-based, human", "settings": "37 uM camptothecin, 24 h", "method": "as §2, §1"}, "[4]": {"test_system": "fibrosarcoma cell line HT1080", "assay": "TUNEL apoptosis assay after camptothecin, HT1080 expressing COX7A1 vs GFP control", "assay_type": "cell-based, human", "settings": "0, 0.37 and 37 uM camptothecin, 24 h, p<0.05", "method": "as §2, §1"}, "[5]": {"test_system": "xenograft breast tumors derived from the breast cancer cell line MCF-7", "assay": "COX7A1 expression in MCF-7 xenograft breast tumors after doxorubicin", "assay_type": "in vivo", "settings": "MCF-7 xenograft breast tumors treated with doxorubicin; controls 3.84 and 4.52", "text": "The present invention instead teaches the contrary, that these surviving CSCs are instead cancer cells that display a post-EFT pattern (i.e. a more mature pattern) of gene expression. Using the expression of the gene COX7A1 as a transcriptional marker of pre- or post-EFT cells wherein COX7A1 is expressed in post-EFT cells, we observe that pancreatic cancer with ablated KRAS leading to pancreatic CSCs, results in increased COX7A1 and CAT (also a post-EFT marker), not decreased as predicted by current models (FIG. 10). In addition, the treatment of xenograft breast tumors derived from the breast cancer cell line MCF-7 with the anti-tumor anthracycline antibiotic doxorubicin results in COX7A1 RFU levels of 5.04 and 5.57 compared to controls of 3.84 and 4.52 in controls, again indicative of the more mature state of surviving cells following chemotherapy. In addition, in the example of rectal cancer, levels of COX7A1 expression were 92.7 RFUs following radiotherapy compared to 75 RFUs in untreated rectal cancer (p<0.05). […]"}}, "note": "Several values for one entry are separate records, joined by “and”; a condition that tells them apart may be missing. Identical values can stand only once.", "data": [{"compound": "OO", "note": "[H2O2]", "values": [{"measurement": "cells surviving", "setting": "[1]; MSCs after knockdown of COX7A1 (iTR modality), p<0.05", "value": 59.8, "unit": "%"}, {"measurement": "cells surviving", "setting": "[1]; normal adult bone marrow MSCs", "value": 82.4, "unit": "%"}]}, {"compound": "CC[C@@]1(O)C(=O)OCc2c1cc1n(c2=O)Cc2cc3ccccc3nc2-1", "note": "[camptothecin]", "values": [{"measurement": "apoptosis", "setting": "[2]", "value": 25.5, "unit": "%"}, {"measurement": "apoptosis", "setting": "[3]", "value": 39, "unit": "%"}, {"measurement": "sensitivity to apoptosis (TUNEL)", "setting": "[4]", "value": "significantly decreased sensitivity to apoptosis"}]}, {"compound": "COc1cccc2c1C(=O)c1c(O)c3c(c(O)c1C2=O)C[C@@](O)(C(=O)CO)C[C@@H]3O[C@H]1C[C@H](N)[C@H](O)[C@H](C)O1", "note": "[doxorubicin]", "values": [{"measurement": "COX7A1 RFU levels", "setting": "[5]", "value": "5.04 RFU and 5.57 RFU"}]}]}
